Results taken from patent publication US7968139B2, “Packaged beverages” (Kao Corporation, priority 2000, dated 2011).

Key:
[1] = tested on: PPAR-dependent gene transcription in small intestine epithelial cell line IEC-6; experiment: Test on PPAR-dependent gene transcription activation (PPAR-Luc reporter), IEC-6; assay type: cell-based; conditions: IEC-6, test concentration 10 μM, 24 hours
Procedure: (§1) The small intestine epithelial cell line IEC-6 and human hepatic cell line HepG2 were inoculated on a 12 well plate and cultured in DMEM (5% FCS) for 24 hours. A DNA chain containing PPAR responsive element (underlined portion) ([…]), a SV40 promoter gene, a PPAR reporter plasmid (PPAR-Luc) containing firefly luciferase gene, and a control plasmid having thymidine kinase promoter gene linked on the upstream of renilla luciferase gene were introduced simultaneously by using a transfection reagent (“Superfect transfection reagent”, product of Promega Corporation) each in an amount of 0.5 μg/well. The culture broth was then replaced with a DMEM (—FCS) medium containing a test substance, followed by incubation for further 24 hours. After washing with PBS, the cells were lysed using dual luciferase assay system (product of Promega Corporation). To the resulting lysate, a substrate solution containing luciferin was added and firefly and renilla luciferase activities were measured by a luminometer. In this test system, a PPAR-dependent gene transcriptional activator was searched for by measuring the transcriptional activity (luciferase activity of PPAR-dependent gene. It is to be noted that the PPAR-dependent gene transcriptional activity (luciferase activity) was defined as described below. PPAR-dependent gene transcriptional activity (luciferase activity)=(firefly luciferase activity by PPAR-Luc)/(renilla luciferase activity by TK-Luc)
(§2) In Table 8, PPAR-dependent gene transcription activating capacity of each test substance in IEC-6 and HepG2 cell lines is shown. In this table, PPAR-dependent transcriptional activity by the control is set at 100 and activity relative to it is indicated. As a positive control, fenofibrate was employed.

[2] = tested on: PPAR-dependent gene transcription in human hepatic cell line HepG2; experiment: Test on PPAR-dependent gene transcription activation (PPAR-Luc reporter), HepG2; assay type: cell-based; conditions: HepG2, test concentration 10 μM, 24 hours
Procedure: as §1, §2

For Catechin, the “PPAR-dependent transcriptional activity (luciferase activity) relative to control set at 100” value [1] was 152 and the “PPAR-dependent transcriptional activity (luciferase activity) relative to control set at 100” value [2] was 149.

With O=C(O[C@@H]1Cc2c(O)cc(O)cc2O[C@@H]1c1cc(O)c(O)c(O)c1)c1cc(O)c(O)c(O)c1 [Epigallocatechin gallate] the “PPAR-dependent transcriptional activity (luciferase activity) relative to control set at 100” value [1] was 184 and the “PPAR-dependent transcriptional activity (luciferase activity) relative to control set at 100” value [2] was 172.

In the case of Oc1cc(O)c2c(c1)O[C@H](c1ccc(O)c(O)c1)[C@H](O)C2 [Epicatechin], the “PPAR-dependent transcriptional activity (luciferase activity) relative to control set at 100” value [1] was 158 and the “PPAR-dependent transcriptional activity (luciferase activity) relative to control set at 100” value [2] was 150.

In the case of O=C(O[C@@H]1Cc2c(O)cc(O)cc2O[C@@H]1c1ccc(O)c(O)c1)c1cc(O)c(O)c(O)c1 [Epicatechin gallate], the “PPAR-dependent transcriptional activity (luciferase activity) relative to control set at 100” value [1] was 178 and the “PPAR-dependent transcriptional activity (luciferase activity) relative to control set at 100” value [2] was 166.
